Calls of active or inactive are those of the source. No cut-off for these calls is given here.
How the values were obtained:
Influenza A virus [1] = assay: Antiviral activity against influenza A virus A/WSN/33-S31N infected in dog MDCK cells after 2 days by naphthalene black dye staining based plaque reduction assay; assay type: functional, organism-based
Influenza A virus [2] = assay: Antiviral activity against wild type influenza A virus A/WSN/33-N31S infected in dog MDCK cells at 1 uM after 2 days by naphthalene black dye staining based plaque reduction assay; assay type: functional, organism-based

Compound: Oc1ccc(CNC23CC4CC(CC(C4)C2)C3)c(O)c1
- EC50 (Influenza A virus [1]): 3.2 µM
- inhibition (Influenza A virus [2]): Active

Compound: NC12CC3CC(CC(C3)C1)C2 [AMANTADINE]
- EC50 (Influenza A virus [1]): 22.5 µM
